The record followed here is patent US20100222416A1, “Diagnostic Marker and Therapeutic Target for Cancer” (priority 2005, published 2010).

What all share (format): cell-based, human
Test [1] deals with nm23H1-A. The test is described as follows: RT-PCR / real time PCR of nm23H1-A mRNA in 5-FU treated colon cancer cell lines. Conditions: Colo 205 cells, 100 μM, 24 hrs. How it is done:
(§1) The over expression of nm23H1-B was checked at RNA level by RT-PCR. Colo 205 cells were seeded in 6 well plates at 80% confluence and treated with 100 μM of 5FU for 24 hrs. Subsequently, 1 ml of Trizol reagent (Invitrogen) was added to the cells after a phosphate buffer saline washing for extraction of RNA. The total RNA was extracted using chloroform-isopropyl alcohol method. Finally, the pellet was washed with 70% ethanol and dried on a speed-vac. Control RNA from untreated cells was also extracted in a similar fashion (cells, not treated with 5FU.
(§2) RT-PCR was carried out using one step RT-PCR Kit (Qiagen) according to manufacturer's instructions. 1 μg of RNA was taken and mixed with specific primers of nm23H1A & nm23H1B respectively (Table 1, SEQ ID: 3,4,5). β2-micro globulin (primer sequence, Table 1, SEQ ID: 6,7) was used as a control. The PCR amplified samples were then analyzed on a 1.5% agarose gel.

In test [2] the test system is nm23H1-B gene. Kind of test: RT-PCR / real time PCR of nm23H1-B mRNA in 5-FU treated colon cancer cell lines (Colo 205, HT29). The procedure:
as §1, §2
On the technique in general: Quantitative PCR measures a nucleic acid by following its amplification.

Test [3] has as its system nm23H1-B gene. The test is described as follows: nm23H1-B mRNA expression in colon cancer cells treated with different anticancer agents (RT-PCR and real time PCR). Conditions: HT29 cell line, 24 hrs. The procedure:
To study the effect of other anticancer agents on expression of nm23H1-B gene, we took representative of different classes of anticancer agents like alkylating agents (cisplatin), topoisomerase I and II inhibitors (CPT-11), RNA/DNA antimetabolites (5-FU) and antimitotic agents (paclitaxel).
Cells were treated with different anticancer agents for 24 hrs and RNA was isolated.

Test [4] has as its system nm23H1 protein (19.6 kDa form coded by nm23H1-B gene). Kind of test: Two-dimensional PAGE / MALDI of untreated and 5FU treated Colo 205 cell lysate, differentially expressed proteins. Conditions: colo 205 cells, 100 μM, 24 hrs, 2D PAGE spot intensity. The procedure:
Two-dimensional gel electrophoresis was carried out to identify differentially expressed proteins on treatment with anticancer agents specifically, colon/colorectal cancer cell line (NCCS, Pune, India) was treated with 5-FU (Fivoflu, Dabur Pharma Ltd, India). Untreated cells (cells, not treated with 5FU) were taken as control.
100 μM of 5-FU was added to colo 205 cells seeded at 80% confluence and were harvested after 24 hrs of treatment. Cells were lysed in lysis buffer (Urea 0.54 g/ml, CHAPS 40 mg/ml and DTT 20 mg/ml) and the clear supernatant of treated and untreated (not treated with 5-FU) cell lysate were subjected to isoelectric focusing (Bio-Rad, Protean IEF Cell) on separate 17 cm IPG strips of 4-7 pH range.
Second dimension electrophoresis was subsequently carried out on a 12% SDS-PAGE (Protean II XL electrophoresis system, Bio-Rad). The gel was silver stained for visualization of the protein spots and a digitized image of the 2D gel was generated, using GS 800 Densitometer (Bio-Rad). […]
The protein spots showing more than 2-fold change in intensity in 5-FU treated and untreated samples were further analyzed. […] The dried samples were reconstituted in 10 μl of 0.1% (v/v of 50% acetonitrile) trifluoroacetic acid and peptides were detected on a Matrix-Assisted Laser Desorption/Ionisation-Time of Flight Mass Spectrometry (MALDI-TOF MS) (Voyager-DE STR). […]

Test [5] concerns nm23H1-B protein. The test is described as follows: Western blot of nuclear and cytosolic fractions of 5FU treated Colo 205 cells. Conditions: 100 μM, 24 hours. How it is done:
Intracellular localization of both nm23H1-A & nm23H1-B gene was evaluated by Western Blot analysis. Colo 205 cells were treated with 100 μM 5FU for 24 hours and cells were removed from their dishes by gentle scraping. Cells were washed with cold PBS and then resuspended in cold nuclei extraction buffer (320 mM sucrose, 5 mM Mgcl2, 10 mM HEPES, 1% Triton X-100 at pH 7.4) at a ratio of 1 ml per million cells. Nuclear fraction was then pelleted by centrifugation at 2000×g and washed twice with nuclei washing buffer (same as nuclei extraction buffer without Triton X-100). Supernatant was collected separately as a cytosolic fraction. Protein was estimated in both nuclear and cytosolic fraction and equal amount of protein was loaded on a 15% SDS PAGE followed by electrobloting on to a polyvinylidene difluoride membrane. Transferred proteins were incubated with blocking buffer containing 3% bovine serum albumin in phosphate-buffered saline. Polyclonal antibody specific for nm23 protein (Santa Cruz) and peroxidase-labeled goat anti-rabbit IgG (Sigma) were used to probe the target gene.
(In general: A western blot detects proteins with antibodies after separation by electrophoresis.)

Test [6] deals with nm23H1-A. Kind of test: nm23H1-A mRNA expression in colon cancer cells treated with different anticancer agents (RT-PCR and real time PCR). Conditions: HT29 cell line, 24 hrs.

For the compound `O=c1[nH]cc(F)c(=O)[nH]1` [5-FU], the “change in nm23H1-A expression level (RNA level)” value in test [1] was “insignificant change”. Further, the “change in nm23H1-B gene expression (RNA level)” value in test [2] (Colo 205 cells, 100 μM, 24 hrs, RT-PCR) is reported as “up regulation”. For the same compound, in test [2] (colon/colorectal cancer cells), the “overexpression of nm23H1-B gene” value was “about nine”. In addition, the “mRNA levels of nm23H1-B” value in test [3] is given as “Increase”. Further, the “up regulation of nm23H1 protein in treated cells as compared to untreated” value in test [4] is recorded as “more than 6 fold”. Besides, the nm23H1-B protein level entry in test [5] is given as “up-regulation”. Also, in test [6], the “mRNA levels of nm23H1-A” value is reported as “Increase”.

In the case of `CCc1c2c(nc3ccc(OC(=O)N4CCC(N5CCCCC5)CC4)cc13)-c1cc3c(c(=O)n1C2)COC(=O)[C@]3(O)CC` [CPT11, camptothecin-11], in test [3], the “mRNA levels of nm23H1-B” value is “Increase”. Also, the “mRNA levels of nm23H1-A” value in test [6] is reported as “Increase”.

Turning to `N.N.[Cl][Pt][Cl]` [cisplatin], the “mRNA levels of nm23H1-B” value in test [3] is recorded as “Increase”. The “mRNA levels of nm23H1-A” value in test [6] is “Increase”.

For `CC(=O)O[C@H]1C(=O)[C@@]2(C)[C@H]([C@H](OC(=O)c3ccccc3)[C@]3(O)C[C@H](OC(=O)[C@H](O)[C@@H](NC(=O)c4ccccc4)c4ccccc4)C(C)=C1C3(C)C)[C@]1(OC(C)=O)CO[C@@H]1C[C@@H]2O` [paclitaxel], in test [3], the “mRNA levels of nm23H1-B” value is listed as “Increase”. Also, the “mRNA levels of nm23H1-A” value in test [6] is given as “Increase”.
